Consider 83 substances from patent publication US20240207421A1, “NERVE TARGETING PEPTIDES AND METHODS OF USE” (ALUME BIOSCIENCES, INC., priority 2020, published 2024).

The test relates to Laminin 421/521. Kind of test: Phage display library screening (Example 2), NEB laminin-binding peptides. On the set-up: species or system human. The conditions noted are these: Laminin 421/521, not 211 and 411; combined unique sequence count, Python/R script analysis. How it is done:
Phage display library screens were used to identify peptides that bind to target proteins (including specific laminin trimers) that are expressed in human nerves, as described in Table 3. These screens were also carried out to identify peptides that could bind selectively to nerves versus muscle. Such peptides could therefore be useful for systemic in-vivo labeling of nerves during fluorescence assisted surgery. Specifically, m 13 phage libraries expressing 7 or 12 random amino acid peptides, or a cyclic peptide CX7C, on the N-terminus of the minor coat protein pIII (New England Biolabs; NEB) were processed through multiple rounds of selection for binding to target proteins expressed in nerves, or to excised human nerves, nerve extracts, or muscle, as described further below.
For screening against the specified target proteins in Table 1, including LN211, LN411, LN421, and LN521, the phage library was processed by up to 4 binding and wash cycles. For selection, phage libraries were incubated for up to 24 hours at 4° C. in 96 well plates that had been coated with one of the target proteins. Plates were then washed with PBS and phage were eluted using 0.2M glycine pH 2.0. Phage supernatants where then neutralized with Tris pH 9.0 prior to plating on TGI bacteria and LB agar plates. Colonies were counted to determine titer followed by DNA preparation of pools of phage and NextGen sequencing. After rounds of selection, phage were pooled and amplified for iterative selection. Phage that were bound at each round were sequenced. NextGen sequencing of pools after 2, 3 and 4 rounds of selection was used to isolate candidate sequences that were analyzed further to identify those that specifically bound each unique target protein.
For all NEB sequence datasets, a python script was used to translate, trim, and filter the peptide sequences (see details above). A python script was used to group peptides from different assays according to laminin complex binding (laminin complex 211, 411, 421, or 521) and combine the unique sequence counts for each peptide. An R script was written to merge the peptide sequences from different data files and determine peptides that specifically bind one laminin complex and not the others, or that bind both laminin 421 and 521 but not 211 and 411.
With “CHQRQQTYC (Laminin 421/521-binding peptide)”, the Count came out at 55. For “WGANTTGRTHGG (Laminin 421/521-binding peptide)” the value was 40; for “SYDGTMLKQVRL (Laminin 421/521-binding peptide)”, 36; for “LGHQNGGRADMW (Laminin 421/521-binding peptide)”, 35. For “CGITQTTTC (Laminin 421/521-binding peptide)” the value was 55; for “CKSERGPEC (Laminin 421/521-binding peptide)”, 30. For “LLAGPFR (Laminin 421/521-binding peptide)” the value was 44; for “GEPLTRFPNSDS (Laminin 421/521-binding peptide)”, 52. For “GPKNHHQ (Laminin 421/521-binding peptide)”, the Count worked out at 51. The value for “QINWKQADKNAD (Laminin 421/521-binding peptide)” was 33; that for “DSLYRGMHQPRI (Laminin 421/521-binding peptide)” was 29. For “GSGFRNEEHSAH (Laminin 421/521-binding peptide)” the value was 51; for “ETYKVTRVISPW (Laminin 421/521-binding peptide)”, 50; for “QGWKDRLPIWRY (Laminin 421/521-binding peptide)”, 29.

As for “WPMMQTR (Laminin 421/521-binding peptide)”, the Count was found to be 29. For “SVQTPMWRSLVG (Laminin 421/521-binding peptide)” the value was 28. For “CTPRSATLC (Laminin 421/521-binding peptide)” the value was 37; for “WSPANGWRHQTI (Laminin 421/521-binding peptide)”, 36; for “RLVTASMVSPSF (Laminin 421/521-binding peptide)”, 95. Regarding “APKVTNARPTQL (Laminin 421/521-binding peptide)”, the Count is on record as 147. For “KALGYSLVGGEW (Laminin 421/521-binding peptide)” the value was 134. “LGPSTQGAGQTR (Laminin 421/521-binding peptide)”: the Count worked out at 38. With “CPMHQSKTC (Laminin 421/521-binding peptide)”, the Count was found to be 28.

Regarding “CTGETLLTC (Laminin 421/521-binding peptide)”, the Count turned out to be 28.

Take “CNHLTQKLC (Laminin 421/521-binding peptide)”: the Count worked out at 45. For “VYRNGGGLPLTA (Laminin 421/521-binding peptide)” the value was 34; for “GSTTHPHFGLPG (Laminin 421/521-binding peptide)”, 40. For “GFADVIHRKWSS (Laminin 421/521-binding peptide)” the value was 53; for “QPTPSQIKFTRT (Laminin 421/521-binding peptide)”, 28; for “DGQVSDHSYVQW (Laminin 421/521-binding peptide)”, 101. With “DRMYSTVPAEGL (Laminin 421/521-binding peptide)”, the Count was 27. In the case of “WNANYGTMTRHA (Laminin 421/521-binding peptide)”, the Count was found to be 92.

With “GPMLKNLSDAVT (Laminin 421/521-binding peptide)”, the Count is given as 31. The value for “NWTHLGVARLQP (Laminin 421/521-binding peptide)” was 36; that for “MTNSGAK (Laminin 421/521-binding peptide)” was 35. The value for “SLLSVVNTSSKS (Laminin 421/521-binding peptide)” was 31; that for “SLNTTWVSPMMK (Laminin 421/521-binding peptide)” was 37; that for “FPLKIRT (Laminin 421/521-binding peptide)” was 42. For “GRTIHSM (Laminin 421/521-binding peptide)” the value was 95; for “IDQSGLQKSGMK (Laminin 421/521-binding peptide)”, 29; for “CTWKHRDNC (Laminin 421/521-binding peptide)”, 30. With “GPLLFRG (Laminin 421/521-binding peptide)”, the Count turned out to be 30. Take “EAVSTQI (Laminin 421/521-binding peptide)”: the Count worked out at 27. For “AHAAGRDMRQGT (Laminin 421/521-binding peptide)”, the Count was 36. For “ATSKYPNSWAQT (Laminin 421/521-binding peptide)” the value was 80; for “EDRMMTYRYTST (Laminin 421/521-binding peptide)”, 29; for “TTLWLDRDEALK (Laminin 421/521-binding peptide)”, 27. The value for “AVVSQNQMSQQK (Laminin 421/521-binding peptide)” was 64.

With “CGETTAGKC (Laminin 421/521-binding peptide)”, the Count is reported as 33. For “GDAQILM (Laminin 421/521-binding peptide)” the value was 38; for “WGLKLPH (Laminin 421/521-binding peptide)”, 117; for “QALRTNYSPLNS (Laminin 421/521-binding peptide)”, 32.

With “CLKDTHLNC (Laminin 421/521-binding peptide)”, the Count is recorded as 40. For “QTFGYSMFNVRT (Laminin 421/521-binding peptide)”, the Count is listed as 30. For “DVIHSSRGAYFE (Laminin 421/521-binding peptide)” the value was 36; for “ANRYLAS (Laminin 421/521-binding peptide)”, 40. The value for “VPVFLDQARVMK (Laminin 421/521-binding peptide)” was 53. The value for “SWQMRSY (Laminin 421/521-binding peptide)” was 48; that for “CTKSPSNSC (Laminin 421/521-binding peptide)” was 58. In the case of “SVESNSKLTMPR (Laminin 421/521-binding peptide)”, the Count turned out to be 29. For “GGYDLPWANWQN (Laminin 421/521-binding peptide)” the value was 497; for “CHNADNNGC (Laminin 421/521-binding peptide)”, 32.

As to “SPDRTNWGWQTN (Laminin 421/521-binding peptide)”, the Count is listed as 29. The value for “VVPSWPSVHRPP (Laminin 421/521-binding peptide)” was 31; that for “HASNQRV (Laminin 421/521-binding peptide)” was 93. The value for “CLQKNHKFC (Laminin 421/521-binding peptide)” was 27; that for “SYTATWSEMSRS (Laminin 421/521-binding peptide)” was 28; that for “ADMPQMTLKYGV (Laminin 421/521-binding peptide)” was 47. For “CQGWPRPMC (Laminin 421/521-binding peptide)” the value was 30; for “WQWRSTELGYRY (Laminin 421/521-binding peptide)”, 36. As for “AVRPLGLPDNHR (Laminin 421/521-binding peptide)”, the Count was determined as 29. Turning to “AQGVWWSEWFAP (Laminin 421/521-binding peptide)”, the Count was 42. As to “AQRMNQA (Laminin 421/521-binding peptide)”, the Count turned out to be 38.

For the substance “WGWNGANMSPRG (Laminin 421/521-binding peptide)”, the Count worked out at 31. On to “GLLDWGSLQGGN (Laminin 421/521-binding peptide)”, for which the Count stood at 30. For “IPVGERK (Laminin 421/521-binding peptide)” the value was 124; for “CIGGPHRNC (Laminin 421/521-binding peptide)”, 29; for “CGLATNKSC (Laminin 421/521-binding peptide)”, 39. On to “CVLKCEDQKYRG (Laminin 421/521-binding peptide)”, for which the Count was determined as 27. On to “SVVGWAAPRTAQ (Laminin 421/521-binding peptide)”, for which the Count worked out at 27. The value for “HSTYAPG (Laminin 421/521-binding peptide)” was 33. For “NDTGRHASGISK (Laminin 421/521-binding peptide)”, the Count is 32. As to “GIVPSRHTTGLG (Laminin 421/521-binding peptide)”, the Count came out at 28.
